Test results: ChEMBL document CHEMBL1201862, “PubChem BioAssay data set” (2004)
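The compound was tested at five concentrations on cells cultured in 96-well plates, with a 48-hour exposure period. The concentration for 50% growth inhibition is given as GI50.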 The source made the active and inactive calls. No stated cut-off is given here; in the data, active = GI50 up to about 1.1 µM and inactive = higher.

Legend:
Assay in all cases: inhibition of tumour cell growth, NCI panel, 48 h
[1] = test system: A498
[2] = test system: CCRF-CEM
[3] = test system: COLO 205
[4] = test system: HCC 2998
[5] = test system: HCT-15
[6] = test system: HOP-62
[7] = test system: K562
[8] = test system: MCF7
[9] = test system: MDA-N
[10] = test system: MOLT-4
[11] = test system: Malme-3M
[12] = test system: NCI-H522
[13] = test system: NCI/ADR-RES
[14] = test system: OVCAR-3
[15] = test system: SF-295
[16] = test system: SK-MEL-5
[17] = test system: SN12C
[18] = test system: TK-10
[19] = test system: UACC-257

Structure (SMILES)	GI50 [1]	GI50 [2]	GI50 [3]	GI50 [4]	GI50 [5]	GI50 [6]	GI50 [7]	GI50 [8]	GI50 [9]	GI50 [10]	GI50 [11]	GI50 [12]	GI50 [13]	GI50 [14]	GI50 [15]	GI50 [16]	GI50 [17]	GI50 [18]	GI50 [19]
O=C(Nc1ccc(Nc2ccc3c(c2)C(=O)c2ccccc2C3=O)c2c1C(=O)c1ccccc1C2=O)c1ccccc1	> 87.7 µM (inactive)	14.6 µM (inactive)	51.6 µM (inactive)	6.84 µM (inactive)	7.62 µM	44.9 µM (inactive)	7 µM (inactive)	31.3 µM (inactive)	3.05 µM (inactive)	11.3 µM (inactive)	14.1 µM (inactive)	3.36 µM (inactive)	22 µM (inactive)	16 µM (inactive)	31.4 µM (inactive)	> 42 µM (inactive)	> 100 µM (inactive)	95.3 µM (inactive)	> 100 µM (inactive)
Cn1c(=O)c2ccccc2[n+]2c(-c3cccc([N+](=O)[O-])c3)csc12	58.9 µM (inactive)	32.6 µM (inactive)	> 100 µM (inactive)	> 100 µM (inactive)		21.2 µM (inactive)	36.7 µM (inactive)	32.6 µM (inactive)	76.6 µM (inactive)	24.2 µM (inactive)	> 100 µM (inactive)	38 µM (inactive)	9.51 µM (inactive)	39.4 µM (inactive)	44.8 µM (inactive)	59.7 µM (inactive)	> 100 µM (inactive)	36.4 µM (inactive)	> 100 µM (inactive)
C=CCOC(=O)N1c2ccc(O[Si](C)(C)C(C)(C)C)cc2[C@@]23O[C@@]24[C@@H]1C#C/C=C\C#C[C@]3(O)C(OC)(OC)C[C@@H]4C	1.31 µM (inactive)	> 23.7 µM (inactive)	> 26.8 µM (inactive)	> 22.8 µM (inactive)	> 100 µM	> 61.7 µM (inactive)	4.14 µM (inactive)	10.8 µM (inactive)	> 57.5 µM (inactive)	2.89 µM (inactive)	> 100 µM (inactive)	44.6 µM (inactive)	41.6 µM (inactive)	5.55 µM (inactive)	> 34.1 µM (inactive)	18.7 µM (inactive)	> 84.7 µM (inactive)	> 30.5 µM (inactive)	19 µM (inactive)
COc1c2cc([N+](=O)[O-])cc1CNC(=O)CN1CCOCCOCCN(CCOCCOCC1)CC(=O)NC2	> 100 µM (inactive)	> 100 µM (inactive)	> 100 µM (inactive)	> 100 µM (inactive)	> 100 µM	> 100 µM (inactive)	> 100 µM (inactive)	> 100 µM (inactive)	> 100 µM (inactive)	> 100 µM (inactive)	> 100 µM (inactive)	> 100 µM (inactive)	> 100 µM (inactive)	> 100 µM (inactive)	> 100 µM (inactive)	> 100 µM (inactive)	> 100 µM (inactive)	> 100 µM (inactive)	> 100 µM (inactive)
COc1cc(CC2c3cc(OC)c(OC)cc3CCN2C)c(Oc2cc3c(cc2OC)-c2c(O)c(OC)cc4c2C(C3)N(C)CC4)cc1OC (stereo not drawn)	22 µM (inactive)	18.8 µM (inactive)	11.4 µM (inactive)	13.1 µM (inactive)	14 µM	23.7 µM (inactive)	10.8 µM (inactive)	12.5 µM (inactive)	16.7 µM (inactive)	19.4 µM (inactive)	23.8 µM (inactive)	17.8 µM (inactive)	20.6 µM (inactive)	20.4 µM (inactive)	17.9 µM (inactive)	13.9 µM (inactive)	22.1 µM (inactive)	22 µM (inactive)	14.5 µM (inactive)
CC(C)CCC[C@@H](C)[C@H]1CC[C@H]2[C@@H]3CC[C@H]4C[C@H](N)CC[C@]4(C)[C@H]3CC[C@]12C	22.2 µM (inactive)	2.83 µM (inactive)	21 µM (inactive)	16.4 µM (inactive)	24.8 µM	20 µM (inactive)	24.5 µM (inactive)	23.8 µM (inactive)	30.9 µM (inactive)	11.3 µM (inactive)	17.2 µM (inactive)	21 µM (inactive)	26.7 µM (inactive)	26.6 µM (inactive)	19.3 µM (inactive)	21.5 µM (inactive)	22.9 µM (inactive)	16.6 µM (inactive)	19 µM (inactive)
Cc1cc2c(cc1-c1cc3c(cc1C)C(C(C)C)=C(O)C(=O)/C3=C\Nc1cccc3c(N)cccc13)/C(=C/Nc1cccc3c(N)cccc13)C(=O)C(O)=C2C(C)C	> 100 µM (inactive)	39.2 µM (inactive)	> 100 µM (inactive)	> 100 µM (inactive)	> 100 µM	> 100 µM (inactive)	54.3 µM (inactive)	> 100 µM (inactive)	> 100 µM (inactive)	37.4 µM (inactive)	> 100 µM (inactive)	> 100 µM (inactive)	> 100 µM (inactive)	> 100 µM (inactive)	> 100 µM (inactive)	> 100 µM (inactive)	> 100 µM (inactive)	> 100 µM (inactive)	> 100 µM (inactive)
Cc1c(O)c(OC2OC(CO)C(O)C(O)C2O)cc2c1C=C[C@@H]1[C@@]2(C)C(=O)C[C@]2(C)[C@@H]([C@@](C)(O)C(=O)CCC(C)(C)O)[C@H](O)C[C@@]12C (stereo partly drawn)	19.5 µM (inactive)	37.3 µM (inactive)	35.5 µM (inactive)	20.5 µM (inactive)	25.9 µM	31.7 µM (inactive)	34.1 µM (inactive)	33.6 µM (inactive)	27.9 µM (inactive)	19.7 µM (inactive)	24 µM (inactive)	24.6 µM (inactive)	25.5 µM (inactive)	22.6 µM (inactive)	17.1 µM (inactive)	23 µM (inactive)	19.8 µM (inactive)	18.1 µM (inactive)	20.9 µM (inactive)
CCOC(=O)C1(N)CC1	> 100 µM (inactive)	> 100 µM (inactive)		> 100 µM (inactive)	> 100 µM	> 100 µM (inactive)	> 100 µM (inactive)	> 100 µM (inactive)	> 100 µM (inactive)	> 100 µM (inactive)	> 100 µM (inactive)	> 100 µM (inactive)	> 100 µM (inactive)	> 100 µM (inactive)	> 100 µM (inactive)	> 100 µM (inactive)	> 100 µM (inactive)	> 100 µM (inactive)	> 100 µM (inactive)
CSc1nnc(SCc2nn3c(=O)cc(C)nc3s2)s1	> 100 µM (inactive)	> 100 µM (inactive)	> 100 µM (inactive)	> 100 µM (inactive)	> 100 µM	> 100 µM (inactive)	> 100 µM (inactive)	> 100 µM (inactive)	> 100 µM (inactive)	> 100 µM (inactive)	> 100 µM (inactive)	> 100 µM (inactive)	> 100 µM (inactive)	> 100 µM (inactive)	> 100 µM (inactive)	> 100 µM (inactive)	> 100 µM (inactive)	> 100 µM (inactive)	> 100 µM (inactive)
